Measured values: patent publication US10987317B2, “Inhibition of glutaminase C” (Cornell University, priority 2009, dated 2021)

Legend:
[1] = tested on: GA activity in Dbl- and Cdc42(F28L)-expressing NIH 3T3 cells; test: GA activity in mitochondrial fractions of transformed fibroblasts; assay type: cell-based; details: 10 μM
Method: (§1) 100%=620 moles of glutamine hydrolyzed per minute per mole of enzyme. Data represent the average of 3 experiments (±s.d.). […] Following precipitation of the beads and re-suspension, the samples are analyzed by Western blotting with anti-V5 antibody. […] Data represent the average of 3 experiments (±s.d.). […] Data represent the average of 3 experiments (±s.d.). […] Data represent the average of 3 experiments (±s.d.). FIG. 3E NIH 3T3 cells transiently expressing Dbl are assayed for focus formation in the presence of 10 μM 968 alone or together with […] dimethyl α-ketoglutarate. […] 100%=680 nM glutamine hydrolyzed per minute per 10^5 cells. Data are the average of 3 experiments (=s.d.). […] 100%=750 nM glutamine hydrolyzed per minute per 10^5 cells. Data represent the average of 3 experiments (±s.d.).
(§2) FIGS. 4A-E illustrate the role of glutaminase C activity in cellular transformation. […] Data represent the average of 3 experiments (±s.d.). […] Data represent the average of 3 experiments (±s.d.). […] 100% represents the activity measured in untreated Dbl-transformed cells. The data represent the average of 2 experiments. […] 100% represents the activity measured in untreated SKBR3 cells. The data represent the average of 2 experiments. […] Data represent the average of 3 experiments (±s.d.).
FIGS. 11A-E illustrate the effects of different treatments on GA activity. […] The addition of Pi stimulated the GA activity in control 3T3 cells, Dbl-expressing cells, and Cdc42(F28L)-expressing cells by ˜6-fold, 2-fold, and 3-fold, respectively. 100% represents the Pi-stimulated activity measured for Dbl-transformed cells that are not treated with 968. Data is the average of 3 experiments (±s.d.). […] The addition of Pi stimulated the GA activity of HMECs, MDA-MB231 cells, and SKBR3 cells by ˜5-fold, 2-fold, and 1.4-fold, respectively. 100% represents the Pi-stimulated activity for SKBR3 cells that were not treated with 968. Data are the average of 3 experiments (±s.d.). […] Mitochondrial fractions are prepared from equal numbers of cells and assayed for GA activity in the presence or absence of 133 mM Pi. The data are plotted as the percentage of GA activity measured for untreated SKBR3 cells and represent the average of 2 experiments. […] 100% represents the P1-stimulated activity measured for untreateDbl-transformed cells. The data represent the average of 2 experiments. […] 100% represents the Pi-stimulated activity for untreated SKBR3 cells. The data represent the average of 2 experiments.
Mitochondrial preparations were obtained using the mitochondria isolation kit from QIAGEN (Cat #37612). A suspension containing 2×10^7 cells was transferred into a 50 ml conical tube and centrifuged at 500×g for 10 minutes at 4° C. […]

[2] = tested on: GA activity in SKBR3 cells; test: GA activity in mitochondrial fractions; assay type: cell-based, human; details: 10 μM, phosphate-independent
Method: as §1, §2
FIGS. 11A-E illustrate the effects of different treatments on GA activity. […] The addition of Pi stimulated the GA activity in control 3T3 cells, Dbl-expressing cells, and Cdc42(F28L)-expressing cells by ˜6-fold, 2-fold, and 3-fold, respectively. 100% represents the Pi-stimulated activity measured for Dbl-transformed cells that are not treated with 968. Data is the average of 3 experiments (±s.d.). […] The addition of Pi stimulated the GA activity of HMECs, MDA-MB231 cells, and SKBR3 cells by ˜5-fold, 2-fold, and 1.4-fold, respectively. […] The data are plotted as the percentage of GA activity measured for untreated SKBR3 cells and represent the average of 2 experiments. […] 100% represents the P1-stimulated activity measured for untreateDbl-transformed cells. […]

SMILES: CN(C)c1ccc(C2Nc3ccc4ccccc4c3C3=C2C(=O)CC(C)(C)C3)cc1Br (stereo not drawn) [Compound 968, 5-[3-bromo-4-(dimethylamino)phenyl]-2,2-dimethyl-2,3,5,6-tetrahydrobenzo[a]]
- GA activity of transformed cells [1]: inhibits
- sensitivity of basal versus phosphate-stimulated GA activity ([1]; 133 mM Pi): basal activity being more sensitive
- basal GA activity [2]: sensitive
